Reference: patent US20140322705A1, “Cancer diagnostic and cancer therapeutic” (Thomas Jefferson University, priority 2010, published 2014)
“Also recorded” adds a separate entry of the source.

Experiments:
MDA-MB-231 cells [1] = assay: Modified Boyden Chamber (Transwell) cell migration assay; format: cell-based, human; settings: 10 mM in lower chamber
Description: 3-hydroxy-butyrate or L-lactate can function as chemo-attractants. shown using a modified “Boyden Chamber” assay, employing Transwell cell culture inserts. MDA-MB-231 cells were placed in the upper chambers, and 3-hydroxy-butyrate (10 mM) or L-lactate (10 mM) were introduced into the lower chambers. Note that both 3-hydroxy-butyrate and L-lactate promoted cancer cell migration by nearly 2-fold. *p<0.05, control (vehicle alone) versus 3-hydroxy-butyrate or L-lactate (Student's t-test).
Next, whether 3-hydroxy-butyrate or L-lactate can function as chemo-attractants was assessed, using a modified “Boyden Chamber” assay, employing Transwell cell culture inserts. MDA-MB-231 cells were placed in the upper chambers, and 3-hydroxy-butyrate (10 mM) or L-lactate (10 mM) were introduced into the lower chambers. […] Thus, the metabolic products of aerobic glycolysis can also function as chemo-attractants for cancer cells, probably via a form of nutrient sensing.

[2] = test system: MDA-MB-231 breast cancer cells; assay: MDA-MB-231 flank xenograft tumor growth; format: in vivo, athymic nude mice; settings: 500 mg/kg daily i.p.; tumor volume at 3 weeks post tumor cell injection
Description: A xenograft model was employed in which MDA-MB-231 breast cancer cells injected into the flanks of athymic nude mice to evaluate the potential tumor promoting properties of the products of aerobic glycolysis (such as 3-hydroxy-butyrate and L-lactate). Tumor growth was assessed by measuring tumor volume, at 3-weeks post tumor cell injection. During this time period, mice were administered either PBS alone, or PBS containing 3-hydroxy-butyrate (500 mg/kg) or L-lactate (500 mg/kg), via daily intra-peritoneal (i.p.) injections. Note that 3-hydroxy-butyrate is sufficient to promote an ˜2.5-fold increase in tumor growth, relative to the PBS-alone control. Under these conditions.
To evaluate the potential tumor promoting properties of the products of aerobic glycolysis (such as 3-hydroxy-butyrate and L-lacate), a xenograft model employing MDA-MB-231 breast cancer cells injected into the flanks of athymic nude mice was used. Tumor growth was assessed by measuring tumor volume, at 3-weeks post tumor cell injection. During this time period, mice were administered either PBS alone, or PBS containing 3-hydroxy-butyrate (500 mg/kg) or L-lactate (500 mg/kg), via daily intra-peritoneal (i.p.) injections.

MDA-MB-231 cells [3] = assay: Lung colonization (metastasis) assay, tail vein injection; format: in vivo, athymic nude mice; settings: 7 weeks post-injection; India ink staining
Description: To examine the effect of 3-hydroxy-butyrate and L-lactate on cancer cell metastasis, a well-established lung colonization assay was used, where MDA-MB-231 cells are injected into the tail vein of athymic nude mice. After 7 weeks post-injection, the lungs were harvested and the metastases were visualized with India ink staining. Using this approach, the lung parenchyma stains black, while the tumor metastatic foci remain unstained, and appear white. The number of metastases per lung lobe was scored. Note that relative to PBS-alone, the administration of L-lacate stimulated the formation of metastatic foci by ˜10-fold. Under these conditions, 3-hydroxy-butryate had no effect on metastasis formation. *p<0.01, PBS alone versus L-lactate (Student's t-test and ANOVA); *p<0.05, PBS alone versus L-lactate (Mann-Whitney test).
The effect of 3-hydroxy-butyrate and L-lactate on cancer cell metastasis were measured. For this purpose, a well-established lung colonization assay was used, where MDA-MB-231 cells are injected into the tail vein of athymic nude mice. After 7 weeks post-injection, the lungs were harvested and the metastases were visualized with India ink staining. In this method, the lung parenchyma stains black, while the tumor metastatic foci remain unstained, and appear white. For quantitation purposes. the number of metastases per lung lobe was scored.

[4] = test system: MDA-MB-231 breast cancer cells; assay: Tumor vascularity by CD31 immuno-staining of xenograft tumors; format: in vivo, athymic nude mice; settings: 500 mg/kg daily i.p.; primary xenograft tumors
Description: Tumor angiogenesis could account for the tumor-promoting properties of 3-hydroxy-butyrate. Thus, the status of tumor vascularity was evaluated using antibodies directed against CD31. However, the vascular density (number of vessels per field) was not increased by the administration of either 3-hydroxy-butyrate or L-lactate. Thus, other mechanisms, such as the “Reverse Warburg Effect” may be operating to increase tumor growth. n.s., not significant.
One mechanism that could account for the tumor-promoting properties of 3-hydroxy-butyrate is increased tumor angiogenesis. Thus, the status of tumor vascularity using antibodies directed against CD31 was evaluated. […] Thus, other mechanisms, such as the “Reverse Warburg Effect” may be operating to increase tumor growth.

MCF7 cancer cells = settings: L-lactate added to culture media; cited from earlier work

Compound	promotion of cancer cell migration versus vehicle alone (MDA-MB-231 cells [1]) [fold]	increase in tumor growth (tumor volume) relative to PBS-alone control [2]	formation of lung metastatic foci (metastases per lung lobe) relative to PBS-alone (MDA-MB-231 cells [3])	vascular density (number of vessels per field), CD31 [4]	mitochondrial mass (MCF7 cancer cells)	appearance of lung metastatic foci versus PBS-alone controls (representative images) (MDA-MB-231 cells [3])
CC(O)CC(=O)O (stereo not shown) [3-hydroxy-butyrate]	~2	~2.5 fold	no effect	not increased; also recorded: without any significant increases		
C[C@H](O)C(=O)O [L-lactate]	~2	no significant effect; also recorded: did not increase	~10 fold	not increased	dramatically increase	more numerous, and are also larger in size
